Literature values as cited in patent US7592371B2, “External preparation” (Medrx Co., Ltd., priority 2004, dated 2009).

Settings: oral administration

Compound: COc1ccc(C=CC(=O)Nc2ccccc2C(=O)O)cc1OC [tranilast, N-(3,4-Dimethoxycinnamoyl) anthranilic acid]
- side effects: serious side effects such as hepatic dysfunction and renal dysfunction
